Data taken from the supplement of paper PMC11451515.

Test system: NOMO1
Experiment: cell viability relative to DMSO control; higher = less cytotoxic
Conditions: 48 h
Outline: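 Before seeding, each leukemia line was adapted for at least four passages in each medium. NOMO1 or SEM cells (500 cells/well) and P12-Ichikawa cells (1000 cells/well) went into 1536-well plates at 5 μl, then received library compounds in DMSO by pin dosing across 11 threefold concentrations, 47 μM to 0.79 nM. Readout was CellTiter-Glo One luminescence after 48 h at 37°C, and viability is given as a per-plate percentage of DMSO wells, with cell-free wells as background.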

[1] = HPLM + 10% dialyzed FBS, 0.000781 µM
[2] = HPLM + 10% dialyzed FBS, 0.00234 µM
[3] = HPLM + 10% dialyzed FBS, 0.00702 µM
[4] = HPLM + 10% dialyzed FBS, 0.0211 µM
[5] = HPLM + 10% dialyzed FBS, 0.0632 µM
[6] = HPLM + 10% dialyzed FBS, 0.19 µM
[7] = HPLM + 10% dialyzed FBS, 0.569 µM
[8] = HPLM + 10% dialyzed FBS, 1.71 µM
[9] = HPLM + 10% dialyzed FBS, 5.12 µM
[10] = HPLM + 10% dialyzed FBS, 15.4 µM
[11] = HPLM + 10% dialyzed FBS, 46.1 µM
[12] = RPMI 5 mM glucose + 10% FBS, 0.000781 µM
[13] = RPMI 5 mM glucose + 10% FBS, 0.00234 µM
[14] = RPMI 5 mM glucose + 10% FBS, 0.00702 µM
[15] = RPMI 5 mM glucose + 10% FBS, 0.0211 µM
[16] = RPMI 5 mM glucose + 10% FBS, 0.0632 µM
[17] = RPMI 5 mM glucose + 10% FBS, 0.19 µM
[18] = RPMI 5 mM glucose + 10% FBS, 0.569 µM
[19] = RPMI 5 mM glucose + 10% FBS, 1.71 µM
[20] = RPMI 5 mM glucose + 10% FBS, 5.12 µM
[21] = RPMI 5 mM glucose + 10% FBS, 15.4 µM
[22] = RPMI 5 mM glucose + 10% FBS, 46.1 µM
[23] = RPMI 5 mM glucose + 10% dialyzed FBS, 0.000781 µM
[24] = RPMI 5 mM glucose + 10% dialyzed FBS, 0.00234 µM
[25] = RPMI 5 mM glucose + 10% dialyzed FBS, 0.00702 µM
[26] = RPMI 5 mM glucose + 10% dialyzed FBS, 0.0211 µM
[27] = RPMI 5 mM glucose + 10% dialyzed FBS, 0.0632 µM
[28] = RPMI 5 mM glucose + 10% dialyzed FBS, 0.19 µM
[29] = RPMI 5 mM glucose + 10% dialyzed FBS, 0.569 µM
[30] = RPMI 5 mM glucose + 10% dialyzed FBS, 1.71 µM
[31] = RPMI 5 mM glucose + 10% dialyzed FBS, 5.12 µM
[32] = RPMI 5 mM glucose + 10% dialyzed FBS, 15.4 µM
[33] = RPMI 5 mM glucose + 10% dialyzed FBS, 46.1 µM

Row | SMILES | cell viability [1] [%] | cell viability [2] [%] | cell viability [3] [%] | cell viability [4] [%] | cell viability [5] [%] | cell viability [6] [%] | cell viability [7] [%] | cell viability [8] [%] | cell viability [9] [%] | cell viability [10] [%] | cell viability [11] [%] | cell viability [12] [%] | cell viability [13] [%] | cell viability [14] [%] | cell viability [15] [%] | cell viability [16] [%] | cell viability [17] [%] | cell viability [18] [%] | cell viability [19] [%] | cell viability [20] [%] | cell viability [21] [%] | cell viability [22] [%] | cell viability [23] [%] | cell viability [24] [%] | cell viability [25] [%] | cell viability [26] [%] | cell viability [27] [%] | cell viability [28] [%] | cell viability [29] [%] | cell viability [30] [%] | cell viability [31] [%] | cell viability [32] [%] | cell viability [33] [%]
1 | Clc1ccc(C(Cn2ccnc2)OCc2ccsc2Cl)c(Cl)c1 (stereo unspecified) | 102 | 127 | 114 | 116 | 103 | 98.8 | 108 | 113 | 134 | 117 | 80.6 | 89.7 | 106 | 119 | 102 | 110 | 102 | 119 | 105 | 96.6 | 111 | 94.2 | 88 | 113 | 112 | 129 | 99 | 122 | 118 | 113 | 96.3 | 100 | 73.5
2 | O=C(Nc1ccncc1)C(=O)c1cn(Cc2ccc(Cl)cc2)c2ccccc12 | 106 | 110 | 116 | 105 | 77.9 | 38.1 | 34 | 32.7 | 36.2 | 60.6 | 61.7 | 95.5 | 98.1 | 89.3 | 89.2 | 100 | 46.2 | 26.3 | 22.6 | 53.7 | 44.1 | 61.9 | 88.2 | 91.2 | 116 | 106 | 80.4 | 45.4 | 28.3 | 34.7 | 45.3 | 39.7 | 49.4
3 | Oc1ccc(-c2nc(-c3ccncc3)c(-c3ccc(F)cc3)[nH]2)cc1 | 99.7 | 113 | 122 | 117 | 125 | 135 | 147 | 121 | 19.1 | 2.63 | 1.72 | 100 | 106 | 106 | 112 | 116 | 135 | 150 | 125 | 118 | 18.4 | 1.54 | 105 | 124 | 126 | 110 | 122 | 133 | 136 | 128 | 130 | 36.8 | 1.72
4 | CN1CCC(=C2c3ccccc3CCc3sccc32)CC1 | 88.8 | 107 | 111 | 101 | 126 | 118 | 103 | 104 | 121 | 103 | 44.5 | 106 | 109 | 104 | 106 | 125 | 105 | 114 | 107 | 102 | 108 | 109 | 100 | 108 | 113 | 112 | 112 | 110 | 116 | 108 | 106 | 106 | 65.7
5 | Clc1ccc(C(Cn2ccnc2)OCc2ccc(Sc3ccccc3)cc2)c(Cl)c1 (stereo unspecified) | 126 | 101 | 124 | 120 | 146 | 109 | 126 | 107 | 109 | 98.8 | 104 | 99.2 | 108 | 106 | 111 | 111 | 125 | 104 | 103 | 118 | 70.9 | 63.8 | 111 | 123 | 116 | 112 | 116 | 125 | 134 | 104 | 124 | 88.9 | 59.8
6 | NCC/1=C/NC(=S)N1[C@H]2CCC3=C(F)C=C(F)C=C3C2 | – | – | – | – | – | – | – | – | – | – | – | 106 | 108 | 105 | 102 | 112 | 103 | 124 | 106 | 101 | 105 | 79.4 | – | – | – | – | – | – | – | – | – | – | –
7 | NC(=O)c1c(OCc2c(F)cc(Br)cc2F)nsc1NC(=O)NCCCCN1CCCC1 | 89.9 | 108 | 91.4 | 82.3 | 76.8 | 87.6 | 107 | 79.8 | 67.6 | 18.5 | 21.5 | 123 | 116 | 115 | 116 | 112 | 105 | 111 | 103 | 103 | 66.6 | 85.7 | – | – | – | – | – | – | – | – | – | – | –
8 | Cc1nc(N)sc1-c1ccnc(Nc2ccc(N3CCOCC3)cc2)n1 | 95.3 | 117 | 111 | 120 | 110 | 114 | 115 | 112 | 87 | 79.6 | 82.8 | 93.7 | 91 | 96.5 | 95.5 | 105 | 114 | 105 | 105 | 71.2 | 85.2 | 55.5 | 95.6 | 112 | 116 | 109 | 115 | 106 | 110 | 111 | 69.3 | 72.6 | 61.7
